According to patent publication US20160287514A1 (PIERRE FABRE MEDICAMENT, priority 2012, published 2016):
Read-outs that look alike come from different tables or passages of the source.

Key:
[1] = type: physicochemical
[2] = in vivo; cited from earlier work
pharyngitis = conditions: ibuprofen 400 mg; meta-analysis; cited from earlier work

Q: For `CC(C)Cc1ccc(C(C)C(=O)O)cc1.O.O.[Na]` (centres unmarked) [Sod, ibuprofen sodium dihydrate], which “content of impurities compared among the salts” value ([1]; regardless of the long term temperature and humidity conditions) is on record?
A: lowest content of impurities

Q: Which half-life [2] does the source give for `CC(C(=O)O)c1ccc(-c2ccccc2)c(F)c1` (centres unmarked) [flurbiprofen] here?
A: 4 h

Q: For `CC(C)Cc1ccc(C(C)C(=O)O)cc1` (centres unmarked) [ibuprofen, 2-(4-(2-methylpropyl)phenyl)propanoic acid], which “pain relief in pharyngitis compared with acetaminophene (1000 mg, paracetamol)” value (pharyngitis) is on record?
A: significant superiority

Q: For ibuprofen lysinate, which “total content of impurities” value ([1]; T0, closed pill box) is on record?
A: <0.1 percentage

Q: What about the “total content of impurities” value ([1]; T1 month, 25° C., RH 60, closed pill box) of the same compound?
A: 0.15 percentage

Q: What about the “total content of impurities” value ([1]; T1 month, 40° C., RH 75, closed pill box) of the same compound?
A: 0.19 percentage

Q: What about the “total content of impurities” value ([1]; T1 month, 40° C., RH 75, open pill box) of the same compound?
A: 0.53 percentage

Q: And the “total content of impurities” value ([1]; T2 months, 25° C., RH 60, closed pill box)?
A: 0.15 percentage

Q: And the “total content of impurities” value ([1]; T2 months, 40° C., RH 75, closed pill box)?
A: 0.21 percentage

Q: And the “total content of impurities” value ([1]; T2 months, 40° C., RH 75, open pill box)?
A: 2.21 percentage

Q: And the “total content of impurities” value ([1]; T3 months, 25° C., RH 60, closed pill box)?
A: 0.17 percentage

Q: And the “total content of impurities” value ([1]; T3 months, 40° C., RH 75, closed pill box)?
A: 0.27 percentage

Q: What about the “total content of impurities” value ([1]; T3 months, 40° C., RH 75, open pill box) of the same compound?
A: 3.10 percentage

Q: What about the “total content of impurities” value ([1]; T15 d, 40° C., RH 75, closed pill box) of the same compound?
A: 0.28 percentage
